Data on two substances can be found in patent publication US7407936B2, “Use of copolymer 1 and related peptides and polypeptides and T cells treated herewith for neuroprotective glaucoma therapy” (Yeda Research and Development Co. Ltd., priority 2000, dated 2008).

For series [1], the system named is retinal ganglion cells (RGCs). Description: Severe optic nerve crush injury in mice, RGC survival. The class given is in vivo, Balb/c mice. To be noted: 50 μg Cop-1 in CFA before severe crush; two weeks after injury; p<0.001.
Series [2] has as its system retinal ganglion cells (RGCs). Description: Glutamate toxicity in mice (intravitreal glutamate), RGC survival. It is filed as in vivo, C57BL/6J mice.
Series [3] concerns retinal ganglion cells (RGCs). Description: Optic nerve crush injury in rats: secondary degeneration by retrograde labeling of RGCs. The class given is in vivo, Lewis rats. Particulars: mild crush; vaccinated with Cop 1 in IFA immediately, booster two days later; P<0.05. The procedure: Crush Injury of Optic Nerve. The optic nerve was subjected to crush injury as previously described (Duvdevani et al, 1990). Briefly, rats were deeply anesthetized by intraperitoneal (i.p.) injection of Rompun (xylazine, 10 mg/kg; Vitamed, Israel) and Vetalar (ketamine, 50 mg/kg; Fort Dodge Laboratories, Fort Dodge, Iowa). Using a binocular operating microscope, lateral canthotomy was performed in the right eye, and the conjunctiva was incised lateral to the cornea. After separation of the retractor bulbi muscles, the optic nerve was exposed intraorbitally by blunt dissection. Using calibrated cross-action forceps, the optic nerve was subjected to a crush injury 1-2 mm from the eye. […]
Measurement of Secondary Degeneration by Retrograde Labeling of Retinal Ganglion Cells. Secondary degeneration of the optic nerve axons and their attached retinal ganglion cells (RGCs) was measured after post-injury application of the fluorescent lipophilic dye, 4-(4-(didecylamino)styryl)-N-methylpyridinium iodide (4-Di-10-Asp) (Molecular Probes Europe BV, Netherlands), distally to the lesion site, two weeks after crush injury. Because only axons that are intact can transport the dye back to their cell bodies, application of the dye distally to the lesion site after two weeks ensures that only axons that survived both the primary damage and the secondary degeneration will be counted. […]

Series [4] deals with retinal ganglion cells (RGCs). Description: NMDA toxicity in mice (intravitreal NMDA), RGC survival. The class given is in vivo. To be noted: immunized ten days before NMDA (75 nmole); p=0.55 vs PBS.
The next series deals with retinal ganglion cells. Nature of the series: Ocular hypertension (laser-induced increased IOP) in rats, RGC survival. The class given is in vivo, Lewis rats. Particulars: immunized in CFA on the day of the first laser treatment; after 3 weeks; p<0.0001.
The conditions of series [5]: batches of average molecular weight 23,000; Teitelbaum et al; cited from earlier work.
For series [6] the following is noted: patients, cited from earlier work.

On to Glatiramer acetate [Cop 1], for which the “RGC survival rates relative to non-immunized controls” value in series [1] is “significantly higher”. Besides, the “glutamate toxicity in controls relative to immunized mice” value in series [2] (75 μg Cop 1 in CFA ten days before 200 nmoles glutamate, RGCs counted seven days later) is “about four”. Also, the results for the “mean percentage survival rate of RGCs versus PBS-injected” value in series [2] (immunization 24 h after glutamate injection) and in series [2] (immunization 48 h after glutamate injection) were “significantly higher” and “not significant”, respectively. In addition, in series [2] (immunized on the day of glutamate injection, adjuvant 0.5 or 5 mg/ml bacteria), the “rates of RGC survival versus PBS in adjuvant” value is “significantly higher”. The “glutamate toxicity (RGC survival) after immunization” value in series [2] (immunized ten days before glutamate, adjuvant 5 mg/ml bacteria) is recorded as “significant reduction”. In series [3], the “neuroprotection (surviving RGCs) compared with PBS in IFA” value is listed as “significant neuroprotection”. Further, the “protection from toxicity caused by NMDA (RGC survival)” value in series [4] is recorded as “failed to protect”. Moreover, in the series with retinal ganglion cells, the “numbers of surviving retinal ganglion cells versus PBS/CFA controls” value is reported as “significantly higher”. For the same substance, the “protecting and suppressing EAE” value in series [5] was “highly effective”. Further, in series [6] (Bornstein 1990, Sela 1990, Johnson 1994), the “number of relapses in exacerbating-remitting MS” value is “significantly reduce”. Also, in series [6] (Johnson et al, 1995), the “tolerability in clinical trials” value is listed as “well tolerated with only minor side reactions”.

On to “GQFRVIGPGHPIRALVGDEAEL (listed as Homo sapiens) [pMOG, Myelin oligodendrocyte glycoprotein (MOG) peptide 1-22]”, for which, in series [2] (pMOG in CFA prior to glutamate (200 nmole), assessed 1 week later), the “RGC survival after glutamate injection, effect of immunization” value was “no evidence of a beneficial effect”.
